From article PMC5075052, “Modulation of the Substitution Pattern of 5-Aryl-2-Aminoimidazoles Allows Fine-Tuning of Their Antibiofilm Activity Spectrum and Toxicity” (Antimicrobial Agents and Chemotherapy, 2016)
pIC50: −log10 of the molar value. Where two headings read alike, the source gives them in different places.

Assays:
CsgD = conditions: S. Typhimurium, first 24 h of biofilm formation; cited from earlier work
S. aureus ATCC 6538 = experiment: Monospecies bacterial biofilm inhibition, static peg assay (Calgary device, crystal violet; planktonic OD600); assay type: cell-based, Staphylococcus aureus
Experimental: (§1) A static peg assay, described previously ([27], [74]), was used for bacterial biofilm formation. The Calgary biofilm device consists of a platform carrying 96 polystyrene pegs (Nunc no. 445497) that fits as a microtiter plate lid, with 1 peg hanging into each microtiter plate well (Nunc no. 269789). Twofold serial dilutions of the compounds (dissolved in 100% dimethyl sulfoxide [DMSO] or ethanol) in 100 μl liquid broth (TSB diluted 1/20) per well were prepared in the microtiter plate in duplicate or triplicate with a maximum concentration of 1,600 μM and a minimum concentration of 0.8 μM. Subsequently, an overnight culture of S. Typhimurium ATCC 14028, P. aeruginosa PA14, E. coli TG1, S. epidermidis, S. aureus SH1000, or S. aureus ATCC 6538 (all grown in LB) was diluted 1:100 into TSB diluted 1/20 (or TSB for S. epidermidis, S. aureus SH1000, and S. aureus ATCC 6538), whereas overnight cultures of S. liquefaciens MG44 and B. cepacia LMG1222T were diluted 1:50 into TSB diluted 1/20. P. gingivalis ATCC 33277 cultures were diluted in TSB diluted 1/20 to have a final concentration of 1 × 10^8 cells/ml. Next, 100 μl was added to each well of the microtiter plate, resulting in a total volume of 200 μl medium per well (final concentration range of compounds, 800 μM [2% DMSO or ethanol] to 0.4 μM [0.001% DMSO or ethanol]). In the next step, the pegged lid was placed on the microtiter plate and the plate was incubated for 24 h or 48 h at 25°C or 37°C without shaking. At 37°C, the plates were placed in a sealed container with wet towels on the bottom to prevent evaporation of the growth medium. Biofilms of P. gingivalis ATCC 33277 were grown anaerobically at 37°C for 72 h. During this incubation period, biofilms were formed on the surface of the pegs. After incubation, the optical density at 600 nm (OD600) for the planktonic cells in the microtiter plate was measured using a Synergy MX multimode reader (BioTek, Winooski, VT). This gives a first indication of the effect of the compounds on planktonic growth. For quantification of biofilm formation, the pegs were washed once in 200 μl PBS. The remaining attached bacteria were stained for 30 min with 200 μl 0.1% (wt/vol) crystal violet in an isopropanol-methanol-PBS solution (1:1:18, vol/vol). Excess stain was rinsed off by placing the pegs in a 96-well plate filled with 200 μl distilled water per well. After air drying of the pegs (30 min), the dye bound to the adherent biofilm was extracted with 30% glacial acetic acid (200 μl per well of a 96-well plate). The optical density at 570 nm (OD570) of each well was measured using a Synergy MX multimode reader (BioTek, Winooski, VT). The concentration of each compound needed to inhibit biofilm formation by 50% (BIC50) and the concentration of each compound needed to inhibit planktonic growth by 50% (IC50) were determined from the concentration gradient by using nonlinear curve fitting (GraphPad Prism software, version 5; GraphPad Software, Inc., La Jolla, CA). In the same assay, the effect on planktonic growth was evaluated. The activity was considered biofilm specific if the BIC50 was at least two times lower than the IC50. Data represent the means from at least 3 technical repeats with the corresponding 95% confidence intervals (provided in the supplemental material).

S. aureus SH1000 [1] = experiment: Monospecies bacterial biofilm inhibition, static peg assay; assay type: cell-based, Staphylococcus aureus
Experimental: as §1

S. epidermidis = experiment: as above; assay type: cell-based, Staphylococcus epidermidis; conditions: 37°C
Experimental: as §1

E. coli TG1 = experiment: as above; assay type: cell-based, Escherichia coli
Experimental: as §1

P. aeruginosa PA14 = experiment: as above; assay type: cell-based, Pseudomonas aeruginosa
Experimental: as §1

[2] = test system: S. Typhimurium ATCC 14028; experiment: as above; assay type: cell-based, Salmonella enterica serovar Typhimurium; conditions: S. Typhimurium ATCC 14028, 25°C
Experimental: as §1

S. liquefaciens MG44 = experiment: as above; assay type: cell-based, Serratia liquefaciens; conditions: S. liquefaciens MG44, 25°C
Experimental: as §1

B. cepacia LMG1222T = experiment: as above; assay type: cell-based, Burkholderia cepacia; conditions: 25°C
Experimental: as §1

C. albicans SC5314 = experiment: Inhibition of C. albicans biofilms, CellTiter-Blue quantification; assay type: cell-based, Candida albicans; conditions: C. albicans SC5314, 37°C, CTB method, read-out: BIC50 (μM) for C. albicans SC5314 (37°C)
Experimental: The potential of the compounds to prevent C. albicans SC5314 biofilm formation was assessed using the CellTiter-Blue (CTB) quantification method ([75]). […]. Twofold serial dilutions of the compounds (dissolved in 100% DMSO or ethanol) in 100 μl RPMI 1640 medium per well were prepared in a round-bottom polystyrene 96-well microtiter plate (TPP; Trasadingen, Switzerland) in duplicate or triplicate with a maximum concentration of 1,600 μM and a minimum concentration of 0.8 μM. One hundred microliters of the cell suspension was added to each well of the microtiter plate, resulting in a total volume of 200 μl medium per well (final concentration range of compounds, 800 μM [2% DMSO or ethanol] to 0.4 μM [0.001% DMSO or ethanol]). After 16 h of static incubation at 37°C, the biofilms were washed and quantified by the CTB method as described previously ([73]).

P. aeruginosa PAO1 = conditions: cited from earlier work
S. aureus SH1000 [3] = test system: S. aureus SH1000; set-up: method as in PMID 23208606, PMID 19959627; conditions: cited from earlier work
E. coli VR50 = test system: E. coli VR50; set-up: method as in PMID 23208606, PMID 19959627; conditions: cited from earlier work
E. coli F18 = test system: E. coli F18; set-up: method as in PMID 23208606, PMID 19959627; conditions: cited from earlier work
[4] = Staphylococcus aureus, ATCC6538, read-out: BIC50 (concentration needed to inhibit biofilm formation by 50%), S. aureus ATCC 6538, 37°C
[5] = Staphylococcus aureus, ATCC6538, read-out: IC50 (concentration needed to inhibit planktonic growth by 50%), S. aureus ATCC 6538, 37°C, planktonic OD600
[6] = Staphylococcus aureus, SH1000, S. aureus SH1000, 37°C, read-out: BIC50
[7] = Staphylococcus aureus, SH1000, S. aureus SH1000, 37°C, read-out: IC50 (planktonic growth)
[8] = Staphylococcus epidermidis, read-out: BIC50
[9] = Staphylococcus epidermidis, read-out: IC50 (planktonic growth)
[10] = Escherichia coli, TG1, E. coli TG1, 25°C, read-out: BIC50
[11] = Escherichia coli, TG1, E. coli TG1, 25°C, read-out: IC50 (planktonic growth)
[12] = Pseudomonas aeruginosa, PA14, P. aeruginosa PA14, 25°C, read-out: BIC50
[13] = Pseudomonas aeruginosa, PA14, P. aeruginosa PA14, 25°C, read-out: IC50 (planktonic growth)
[14] = Salmonella enterica, read-out: BIC50
[15] = Salmonella enterica, read-out: IC50 (planktonic growth)
[16] = Serratia liquefaciens, read-out: BIC50
[17] = Serratia liquefaciens, read-out: IC50 (planktonic growth)
[18] = Burkholderia cepacia, read-out: BIC50
[19] = Burkholderia cepacia, read-out: IC50 (planktonic growth)
[20] = read-out: IC50 (planktonic growth)

| Molecule | pIC50 (S. aureus ATCC 6538; [4]) | pIC50 (S. aureus ATCC 6538; [5]) | pIC50 (S. aureus SH1000 [1]; [6]) | pIC50 (S. aureus SH1000 [1]; [7]) | pIC50 (S. epidermidis; [8]) | pIC50 (S. epidermidis; [9]) | pIC50 (E. coli TG1; [10]) | pIC50 (E. coli TG1; [11]) | pIC50 (P. aeruginosa PA14; [12]) | pIC50 (P. aeruginosa PA14; [13]) | pIC50 [2, 14] | pIC50 [2, 15] | pIC50 (S. liquefaciens MG44; [16]) | pIC50 (S. liquefaciens MG44; [17]) | pIC50 (B. cepacia LMG1222T; [18]) | pIC50 (B. cepacia LMG1222T; [19]) | IC50 (C. albicans SC5314; Candida albicans) [µM] | concentration at which biofilm formation is inhibited (P. aeruginosa PAO1) [µM] | also measured |
| --- | --- | --- | --- | --- | --- | --- | --- | --- | --- | --- | --- | --- | --- | --- | --- | --- | --- | --- | --- |
| Nc1ncc(-c2ccccc2)[nH]1 [5-phenyl-2-aminoimidazole] |  |  |  |  |  |  |  |  |  |  |  |  |  |  |  |  |  |  | effect on transcription of CsgD and regulon genes csgB and adrA (CsgD): reduces the transcription of CsgD |
| O=c1cc(-c2ccccc2)oc2cc(O)c(O)c(O)c12 [Baicalein, reference compound] | < 3.40 | < 3.40 | 4.11 | < 3.40 | < 3.40 | < 3.40 | 5.92 | ~4.63 | < 3.40 | < 3.40 | < 3.40 | < 3.40 | < 3.40 | < 3.40 | 4.31 | < 3.40 | 273 | 20 |  |
| O=C(N/N=C/c1ccc([N+](=O)[O-])o1)c1ccc(O)cc1 [Nifuroxazide, reference compound] | 4.18 | 3.90 | < 3.40 | < 3.40 | 4.33 | ~4.36 | 4.91 | < 3.40 | < 3.40 | < 3.40 | < 3.40 | < 3.40 | < 3.40 | < 3.40 | < 3.40 | < 3.40 | > 400 | 70 |  |
| Tannic acid [reference compound] |  |  |  |  |  |  |  |  |  |  |  |  |  |  |  |  |  |  | pIC50 (S. aureus ATCC 6538; S. aureus ATCC 6538, 37°C, planktonic OD600, read-out: IC50 (concentration needed to inhibit planktonic growth by 50%)): < 3.40; pIC50 (S. aureus ATCC 6538; S. aureus ATCC 6538, 37°C, read-out: BIC50 (concentration needed to inhibit biofilm formation by 50%)): ~3.52; pIC50 (S. aureus SH1000 [1]; S. aureus SH1000, 37°C, read-out: BIC50): 3.94; pIC50 (S. aureus SH1000 [1]; S. aureus SH1000, 37°C, read-out: IC50 (planktonic growth)): < 3.40; pIC50 (S. epidermidis; read-out: BIC50): < 3.40; pIC50 (S. epidermidis; [20]): < 3.40; pIC50 (E. coli TG1; E. coli TG1, 25°C, read-out: BIC50): ~3.71; pIC50 (E. coli TG1; E. coli TG1, 25°C, read-out: IC50 (planktonic growth)): < 3.40; pIC50 (P. aeruginosa PA14; P. aeruginosa PA14, 25°C, read-out: BIC50): 4.56; pIC50 (P. aeruginosa PA14; P. aeruginosa PA14, 25°C, read-out: IC50 (planktonic growth)): < 3.40; pIC50 ([2]; read-out: BIC50): 4.73; pIC50 [2, 20]: < 3.40; pIC50 (S. liquefaciens MG44; read-out: BIC50): < 3.40; pIC50 (S. liquefaciens MG44; [20]): < 3.40; pIC50 (B. cepacia LMG1222T; read-out: BIC50): 5.72; pIC50 (B. cepacia LMG1222T; [20]): < 3.40; IC50 (C. albicans SC5314): > 400 µM; concentration at which biofilm formation is inhibited (S. aureus SH1000 [3]): 20 µM; concentration at which biofilm formation is inhibited (E. coli VR50): 20 µM; concentration at which biofilm formation is inhibited (E. coli F18): 20 µM |
